Drawing on patent US12077534B2, “Aza-heterobicyclic inhibitors of MAT2A and methods of use for treating cancer” (Les Laboratoires Servier SAS, priority 2018, dated 2024), this text covers IC50 for 25 compounds.

pIC50: −log10 of the molar value.

In experiment [1] the target is T1, MAT2A homodimer (Homo sapiens, UniProt P31153).
T1 construct: inferred from Ni sepharose purification and imidazole elution; made in house; host or cells: SF9 insect cells, recombinant baculovirus (Bac to Bac, pFASTBAC1)
The experiment in a line: MAT2A biochemical assay (phosphate release, PiColorLock Gold). The conditions noted are these: recombinant MAT2A homodimer, 60 min pre-incubation, 25° C.; read-out: Enzyme Inhibition. In outline: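 Baculovirus/Sf9-expressed, Ni-purified MAT2A homodimer (4 µg/mL in pH 8.0 Tris/KCl/MgCl2 buffer) preincubated 60 min at 25 °C with compound (2% DMSO final). Substrate mix of 500 µM ATP and 400 µM L-methionine added; 60 min at 25 °C; released phosphate quantified colorimetrically against a phosphate standard curve.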

Experiment [2] deals with HCT116 MTAP−/−. The experiment in a line: Inhibition of cellular proliferation (Cell Titer Glo), HCT116 MTAP-/-. To be noted: Homo sapiens, HCT-116, 96 h, 4 days, read-out: 4 Day Relative Growth Inhibition (MTAP −/−). The format is cell-based. In outline:
(§1)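 Isogenic HCT116 MTAP+/+ and MTAP−/− cells treated 24 h after plating with 10-point 3-fold dilutions, then grown 4 days at 37 °C/5% CO2. ATP content read by Cell Titer Glo luminescence, blank-subtracted and normalized to 0.2% DMSO control, plotted as percent proliferation change versus log molar concentration.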
On the technique in general: Cellular ATP, detected with luciferase, serves as a proxy for viable cell number.

Experiment [3] relates to HCT116 MTAP+/+. Briefly: Inhibition of cellular proliferation (Cell Titer Glo), HCT116 MTAP+/+. The experiment is classed as cell-based. To be noted: Homo sapiens, HCT-116, 96 h, 4 days, read-out: 4 Day Relative Growth Inhibition (MTAP +/+). In outline: as §1
Experiment [4] has as its system MAT2A activity (SAM) in HCT116 cells with deleted MTAP gene. The experiment in a line: Cellular assay of target engagement (SAM) by LC-MS/MS. The experiment is classed as cell-based. The conditions noted are these: Homo sapiens, HCT-116; HCT116 MTAP −/−, 72 hrs; read-out: Cell 72 h SAM Inhibition (MTAP −/−). The gist of the method: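 HCT116 MTAP-deleted cells treated with 10-point 3-fold DMSO serial dilutions of compound for 72 hrs at 37° C. Cells lysed in cold 80% methanol/acetic acid extraction buffer with d3-SAM internal standard; SAM quantified by LC-MS/MS (MRM m/z 399.2→250.1).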

T1 sequence (P31153 whole entry): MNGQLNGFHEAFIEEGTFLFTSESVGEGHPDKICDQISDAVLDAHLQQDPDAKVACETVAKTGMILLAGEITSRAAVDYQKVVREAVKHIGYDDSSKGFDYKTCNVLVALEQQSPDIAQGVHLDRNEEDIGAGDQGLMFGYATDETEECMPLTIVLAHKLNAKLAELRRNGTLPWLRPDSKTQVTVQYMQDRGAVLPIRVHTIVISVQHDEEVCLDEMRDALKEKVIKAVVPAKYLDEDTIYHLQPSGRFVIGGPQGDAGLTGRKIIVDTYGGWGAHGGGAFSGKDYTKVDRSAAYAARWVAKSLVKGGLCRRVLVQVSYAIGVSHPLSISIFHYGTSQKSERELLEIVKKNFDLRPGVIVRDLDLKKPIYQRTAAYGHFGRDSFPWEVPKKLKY

As to `CCCc1ccc2nn(-c3ccc4nn(C)cc4c3)c(=O)c(-c3ccc(OC(F)F)cc3)c2n1` [Example 205, 4-(4-(difluoromethoxy)phenyl)-2-(2-methyl-2H-indazol-5-yl)-6-propylpyrido[3,2-c]pyridazin-3(2H)-one], the pIC50 in experiment [1] is more than 7.00; in experiment [2], more than 7.00; in experiment [3] it was not above 6.00; in experiment [4], more than 7.00.
For `Cn1cc2cc(-n3nc4ccc(OCC(F)F)nc4c(C4CCCCC4)c3=O)ccc2n1` [Example 206, 4-cyclohexyl-6-(2,2-difluoroethoxy)-2-(2-methyl-2H-indazol-5-yl)pyrido[3,2-c]pyridazin-3(2H)-one], the pIC50 in experiment [1] was more than 7.00; in experiment [2], 6.00 to 7.00; in experiment [3] it was not above 6.00; in experiment [4], 6.00 to 7.00.
In the case of `Cn1cc2cc(-n3nc4ccc(OCC(F)F)nc4c(-c4ccc(O)cc4)c3=O)ccc2n1` [Example 207, 6-(2,2-difluoroethoxy)-4-(4-hydroxyphenyl)-2-(2-methyl-2H-indazol-5-yl)pyrido[3,2-c]pyridazin-3(2H)-one], the pIC50 in experiment [1] was more than 7.00; in experiment [2], 6.00 to 7.00; in experiment [3], not above 6.00; in experiment [4], more than 7.00.
Turning to `CCc1c2cc(-n3nc4ccc(OCC(F)F)nc4c(-c4ccc(OC(F)F)cc4)c3=O)ccc2nn1C` [Example 208, 6-(2,2-difluoroethoxy)-4-(4-(difluoromethoxy)phenyl)-2-(3-ethyl-2-methyl-2H-indazol-5-yl)pyrido[3,2-c]pyridazin-3(2H)-one], the pIC50 is more than 7.00 in experiment [1], more than 7.00 in experiment [2], 6.00 to 7.00 in experiment [3] and more than 7.00 in experiment [4].
Consider `Cn1cc2cc(-n3nc4c(CO)cc(OCC(F)F)nc4c(-c4ccc(OC(F)F)cc4)c3=O)ccc2n1` [Example 209, 6-(2,2-difluoroethoxy)-4-(4-(difluoromethoxy)phenyl)-8-(hydroxymethyl)-2-(2-methyl-2H-indazol-5-yl)pyrido[3,2-c]pyridazin-3(2H)-one], for which the pIC50 in experiment [1] was more than 7.00; in experiment [2], more than 7.00; in experiment [3], not above 6.00; in experiment [4], more than 7.00.
Take `Cn1cc2cc(-n3nc4c(C(F)F)cc(OCC(F)F)nc4c(-c4ccc(OC(F)F)cc4)c3=O)ccc2n1` [Example 210, 6-(2,2-difluoroethoxy)-4-(4-(difluoromethoxy)phenyl)-8-(difluoromethyl)-2-(2-methyl-2H-indazol-5-yl)pyrido[3,2-c]pyridazin-3(2H)-one]: the pIC50 in experiment [1] was more than 7.00; in experiment [2] it was 6.00 to 7.00; in experiment [3], not above 6.00; in experiment [4], more than 7.00.
For `CN(C)Cc1cc(OCC(F)F)nc2c(-c3ccc(OC(F)F)cc3)c(=O)n(-c3ccc4nn(C)cc4c3)nc12` [Example 211, 6-(2,2-difluoroethoxy)-4-(4-(difluoromethoxy)phenyl)-8-((dimethylamino)methyl)-2-(2-methyl-2H-indazol-5-yl)pyrido[3,2-c]pyridazin-3(2H)-one], the pIC50 in experiment [1] was more than 7.00; in experiment [2], 6.00 to 7.00; in experiment [3] it was not above 6.00; in experiment [4], 6.00 to 7.00.
Turning to `Cn1cc2cc(-n3nc4c(N)cc(OCC(F)F)nc4c(-c4ccc(OC(F)F)cc4)c3=O)ccc2n1` [Example 212, 8-amino-6-(2,2-difluoroethoxy)-4-(4-(difluoromethoxy)phenyl)-2-(2-methyl-2H-indazol-5-yl)pyrido[3,2-c]pyridazin-3(2H)-one], the pIC50 was more than 7.00 in experiment [1], more than 7.00 in experiment [2], 6.00 to 7.00 in experiment [3] and more than 7.00 in experiment [4].
As to `C#Cc1c(=O)n(-c2ccc3nn(C)cc3c2)nc2ccc(OCC(F)F)nc12` [Example 214, 6-(2,2-difluoroethoxy)-4-ethynyl-2-(2-methyl-2H-indazol-5-yl)pyrido[3,2-c]pyridazin-3(2H)-one], the pIC50 was 6.00 to 7.00 in experiment [1], not above 6.00 in experiment [2], not above 6.00 in experiment [3] and less than 6.00 in experiment [4].
Consider `Cn1cc2cc(-n3nc4ccc(OCC(F)F)nc4c(C#Cc4cc[nH]n4)c3=O)ccc2n1` [Example 215, 4-((1H-pyrazol-3-yl)ethynyl)-6-(2,2-difluoroethoxy)-2-(2-methyl-2H-indazol-5-yl)pyrido[3,2-c]pyridazin-3(2H)-one], for which the pIC50 in experiment [1] is more than 7.00; in experiment [2] it was 6.00 to 7.00; in experiment [3], not above 6.00; in experiment [4], less than 6.00.
On to `CCOc1ccc2nn(-c3ccc4nn(C)cc4c3)c(=O)c(-c3ccc(OC(F)F)cc3)c2n1` [Example 217, 4-(4-(difluoromethoxy)phenyl)-6-ethoxy-2-(2-methyl-2H-indazol-5-yl)pyrido[3,2-c]pyridazin-3(2H)-one], for which the pIC50 in experiment [1] was more than 7.00; in experiment [2], more than 7.00; in experiment [3], 6.00 to 7.00; in experiment [4] it was more than 7.00.
`Cc1ccc(-c2c(=O)n(-c3ccc4nn(C)cc4c3)nc3ccc(NCC(F)(F)F)nc23)cn1` [Example 301, 2-(2-methyl-2H-indazol-5-yl)-4-(6-methylpyridin-3-yl)-6-((2,2,2-trifluoroethyl)amino)pyrido[3,2-c]pyridazin-3(2H)-one]: the pIC50 in experiment [1] is more than 7.00; in experiment [2], more than 7.00; in experiment [3], not above 6.00; in experiment [4], more than 7.00.
With `Cc1ccc(-c2c(=O)n(-c3ccc4nn(C)cc4c3)nc3ccc(OCC4CC4)nc23)cn1` [Example 302], the pIC50 in experiment [1] was more than 7.00; in experiment [2] it was more than 7.00; in experiment [3] it was not above 6.00; in experiment [4], more than 7.00.
Take `Cn1cc2cc(-n3nc4ccc(OCC5CC5)nc4c(-c4ccc(C5CC5)nc4)c3=O)ccc2n1` [Example 303]: the pIC50 is more than 7.00 in experiment [1], more than 7.00 in experiment [2], not above 6.00 in experiment [3] and more than 7.00 in experiment [4].
On to `O=c1c(-c2ccc(C3CC3)cc2)c2nc(OCC(F)F)ccc2nn1-c1ccc2ncsc2c1` [Example 304], for which the pIC50 in experiment [1] is more than 7.00; in experiment [2], 6.00 to 7.00; in experiment [3], 6.00 to 7.00; in experiment [4], more than 7.00.
In the case of `CCNc1ccc2nn(-c3ccc4nn(C)cc4c3)c(=O)c(-c3ccc(C)nc3)c2n1` [Example 305], the pIC50 is more than 7.00 in experiment [1], more than 7.00 in experiment [2], not above 6.00 in experiment [3] and more than 7.00 in experiment [4].
For `CCNc1ccc2nn(-c3ccc4nn(C)cc4c3)c(=O)c(-c3ccc(OC)nc3)c2n1` [Example 307], the pIC50 in experiment [1] is more than 7.00; in experiment [2], more than 7.00; in experiment [3] it was not above 6.00; in experiment [4], more than 7.00.
On to `CCNc1ccc2nn(-c3ccc4nn(C)cc4c3)c(=O)c(-c3ccc(C4CC4)nc3)c2n1` [Example 309], for which the pIC50 is more than 7.00 in experiment [1], more than 7.00 in experiment [2], not above 6.00 in experiment [3] and more than 7.00 in experiment [4].
As for `CCNc1ccc2nn(-c3ccc4nn(C)cc4c3)c(=O)c(-c3ccc(C(F)F)nc3)c2n1` [Example 310], the pIC50 in experiment [1] was more than 7.00; in experiment [2], more than 7.00; in experiment [3], not above 6.00; in experiment [4], more than 7.00.
Regarding `CCNc1ccc2nn(-c3ccc4nn(C)cc4c3)c(=O)c(-c3ccc(OC(F)F)nc3)c2n1` [Example 313], the pIC50 in experiment [1] was more than 7.00; in experiment [2], more than 7.00; in experiment [3], 6.00 to 7.00; in experiment [4] it was more than 7.00.
Regarding `Cn1cc2cc(-n3nc4ccc(NCC5CC5)nc4c(-c4ccc(C5CC5)nc4)c3=O)ccc2n1` [Example 315], the pIC50 in experiment [1] is more than 7.00; in experiment [2] it was more than 7.00; in experiment [3], not above 6.00; in experiment [4], more than 7.00.
For the compound `CCNc1ccc2nn(-c3ccc4nn(C)cc4c3)c(=O)c(-c3ccc(C(F)(F)F)nc3)c2n1` [Example 316], the pIC50 is more than 7.00 in experiment [1], more than 7.00 in experiment [2], not above 6.00 in experiment [3] and more than 7.00 in experiment [4].
As to `Cn1cc2cc(-n3nc4ccc(NCC(F)(F)F)nc4c(-c4ccc(C(F)F)nc4)c3=O)ccc2n1` [Example 317], the pIC50 in experiment [1] is more than 7.00; in experiment [2] it was more than 7.00; in experiment [3] it was not above 6.00; in experiment [4] it was more than 7.00.
As to `Cc1ccc(-c2c(=O)n(-c3ccc4nn(C)cc4c3)nc3ccc(NCC(F)F)nc23)cn1` [Example 318], the pIC50 in experiment [1] was more than 7.00; in experiment [2] it was more than 7.00; in experiment [3] it was not above 6.00; in experiment [4] it was more than 7.00.
For the compound `Cn1cc2cc(-n3nc4ccc(NCC(F)F)nc4c(-c4ccc(C(F)F)nc4)c3=O)ccc2n1` [Example 319], the pIC50 was more than 7.00 in experiment [1], more than 7.00 in experiment [2], not above 6.00 in experiment [3] and more than 7.00 in experiment [4].
